Source: patent US20240148682A1, “METHOD FOR REGULATING DOWNSTREAM SIGNALING PATHWAY MEDIATED BY ACTIVATION OF TRIMETHYLAMINE-N-OXIDE” (China Medical University, priority 2022, published 2024)

Legend:
miR-221 = assay: Quantitative PCR of miR-221 expression in hEPCs; format: cell-based, human; details: for inhibiting the expression of miR-221: trimethylamine-N-oxide 300 μM, 125 μM DHA (embodiment 3) or EPA (embodiment 6), 24 hours, compared with comparison group 1
Procedure: To analyze the effects of the omega-3 polyunsaturated fatty in inhibiting the inflammatory responses induced by the activation of the trimethylamine-N-oxide, human endothelial progenitor cells are cultured in the MCDB-131 medium supplemented with the 10% fetal bovine serum and the EGM™-2 growth kit and are administered separately with reagent formulations of the control group 1, the comparison group 1, and the embodiments 1 to 6 shown in Table 1. After the culture time of 24 hours has elapsed, the expressions of cytokines related to the inflammatory responses in the human endothelial progenitor cells are analyzed by enzyme-linked immunosorbent assay (ELISA) and quantitative PCR (qPCR) so as to evaluate the effects of the omega-3 polyunsaturated fatty acids in inhibiting the inflammatory responses mediated by the activation of the trimethylamine-N-oxide. Each experiment is repeated 3 times.
In detail, according to the previous studies, miRNA-221 (“miR-221” hereafter) plays an essential role in the physiological metabolism of the human endothelial progenitor cells. […] Therefore, the present disclosure uses the quantitative PCR and the enzyme-linked immunosorbent assay to analyze the expressions of miR-221 and IL-6 in the human endothelial progenitor cells of the control group 1, the comparison group 1, and the embodiments 1 to 6 after cell culture for 24 hours so as to evaluate the effects of the omega-3 polyunsaturated fatty acids in inhibiting the inflammatory responses induced by the activation of the trimethylamine-N-oxide.
Furthermore, the operation details of the quantitative PCR and the enzyme-linked immunosorbent assay are well-known in the art and can be adjusted according to the experimental requirements, so the detailed steps thereof will not be described herein again.

[1] = tested on: Akt/eNOS signaling pathway and MAPK/ERK signaling pathway; assay: Western blot of factors of the Akt/eNOS and MAPK/ERK signaling pathways in SCF-treated hEPCs; format: cell-based, human; details: SCF 20 ng/mL, trimethylamine-N-oxide 300 μM (comparison group 3) vs SCF alone (comparison group 2), 8 hours
Procedure: (§1) To analyze the effects of the omega-3 polyunsaturated fatty acids in alleviating the impairment of neovascularization induced by the activation of the trimethylamine-N-oxide, human endothelial progenitor cells are cultured in the MCDB-131 medium containing the EGM™-2 growth kit and the 10% fetal bovine serum in a Matrigel-coated 96-well plate. Then, the human endothelial progenitor cells are administered separately with reagent formulations of the control group 2, the comparison groups 2 to 3, and the embodiments 7 to 9 shown in Table 2, and incubated in an incubator at 37° C. for 8 hours.
(§2) After the culture time of 8 hours has elapsed, the human endothelial progenitor cells are fixed in glutaraldehyde/paraformaldehyde solution and treated with Calcein-AM solution so as to detect the fluorescent signals of different groups. The proteins of the human endothelial progenitor cells are extracted and analyzed by the Western blot analysis to confirm the expressions of factors related to the Akt/eNOS signaling pathway, the MAPK/ERK signaling pathway and the expression of gamma-glutamylcysteine synthetase (“γ-GCS” hereafter), wherein the γ-GCS participates in the synthesis of GSH. The GSH/GSSG ratios in the human endothelial progenitor cells are analyzed by using the liquid chromatography, the electrospray ionization, and the mass spectrometry. Each experiment is repeated 3 times. […]

[2] = tested on: human endothelial progenitor cells; assay: Neovasculogenesis index of hEPCs on Matrigel (Calcein-AM); format: cell-based; details: SCF 20 ng/mL, trimethylamine-N-oxide 300 μM (comparison group 3) vs SCF alone (comparison group 2), p<0.05
Procedure: as §1
After the culture time of 8 hours has elapsed, the human endothelial progenitor cells are fixed in glutaraldehyde/paraformaldehyde solution and treated with Calcein-AM solution so as to detect the fluorescent signals of different groups. The proteins of the human endothelial progenitor cells are extracted and analyzed by the Western blot analysis to confirm the expressions of factors related to the Akt/eNOS signaling pathway, the MAPK/ERK signaling pathway and the expression of gamma-glutamylcysteine synthetase (“γ-GCS” hereafter), wherein the γ-GCS participates in the synthesis of GSH. The GSH/GSSG ratios in the human endothelial progenitor cells are analyzed by using the liquid chromatography, the electrospray ionization, and the mass spectrometry. Each experiment is repeated 3 times.

[3] = tested on: human endothelial progenitor cells; assay: GSH/GSSG ratio in hEPCs by liquid chromatography, electrospray ionization, mass spectrometry; format: cell-based; details: SCF 20 ng/mL, trimethylamine-N-oxide 300 μM (comparison group 3) vs SCF alone (comparison group 2), p<0.05
Procedure: as §1, §2

Structure (SMILES)	inhibiting the expression of miR-221 (miR-221)	expression of miR-221 (miR-221; trimethylamine-N-oxide 300 μM alone (comparison group 1) vs control group 1, 24 hours)	expressions of p-Akt, p-eNOS, and p-ERK1/2 [1]	neovasculogenesis index [2]	GSH/GSSG ratio [3]
CC/C=C\C/C=C\C/C=C\C/C=C\C/C=C\C/C=C\CCC(=O)O [DHA, docosahexaenoic acid]	85%	–	–	–	–
CC/C=C\C/C=C\C/C=C\C/C=C\C/C=C\CCCC(=O)O [EPA, eicosapentaenoic acid]	75%	–	–	–	–
C[N+](C)(C)[O-] [trimethylamine-N-oxide, Trimethylamine-N-oxide]	–	significantly higher	lower	significantly lower	significantly lower
